How the values were obtained:
HL-60(TB) = experiment: NCI 60-cell panel dose-response; format: cell-based, human; details: HL-60(TB) (Leukemia)
A549/ATCC = experiment: NCI 60-cell panel dose-response; format: cell-based; details: Homo sapiens; A549/ATCC (Non-small cell lung cancer)
HCC-2998 = experiment: NCI 60-cell panel dose-response; format: cell-based; details: Homo sapiens; HCC-2998 (Colon cancer)
HeLa cells [1] = experiment: Cell cycle profile by FACS; format: cell-based, human; details: dose- and time-dependent
Excerpt: Cell cycle arrest is an important damage surveillance mechanism. […] Treating the cells with NSC745885 caused 47-58% of cells to arrest in sub-G1, which is indicative of cell death. This effect was dose- and time-dependent (FIG. 3, Panel B).

HeLa cells [2] = experiment: Senescence-associated β-galactosidase staining; format: cell-based, human; details: 2.5 μM for 24 hours, stained after 48 hours
Protocol: Cultured cells were washed in PBS (pH 7.4), incubated in a solution of 2% formaldehyde/0.2% glutaraldehyde, and then incubated overnight at 37° C. in freshly prepared staining solution consisting of 1 mg/mL X-gal (5-bromo-4-chloro-3-indolyl-β-D-galactoside), 5 mM K3Fe(CN)6, 5 mM K4Fe(CN)6, 150 mM NaCl and 2 mM MgCl2 in 40 mM citric acid/sodium phosphate, pH 6.0. Following this incubation, cells were washed with water and examined by light microscopy at 200× magnification.
In FIGS. 5C and 5D, HeLa cells were incubated with 2.5 μM NSC745885 for 24 hours. After 48 hours, cells were subjected to SA-β-galactosidase staining (FIG. 5C) and approximately 100 stained cells were quantified (*P<0.05; ** P<0.01; *** P<0.005). NSC745885 induced senescence at a rate of 25% (P=0.0085 compared to DMSO). (FIG. 5D) LC3B-I fragments were observed when the cells were exposed to the drug for longer period of time (FIG. 5A, panel labeled as LE). […] We also treated Hela cells with the autophagy inducer spermidine (Spd) and vehicle (DMSO), which act as the positive and the negative control, respectively.

p53 and p21 = p53 and p21 protein expression, immunoblot; format: cell-based, human; details: HeLa cells, 12 hours, immunoblot
Protocol: Cell lysates were prepared in lysis buffer (100 mM Tris-HCl pH 8.0, 150 mM NaCl, 0.1% SDS, and 1% Triton 100) at 4° C., separated by sodium dodecyl sulfate-polyacrylamide gel electrophoresis (SDS-PAGE), and then transferred onto a polyvinylidine difluoride membrane (Millipore, USA). Proteins were detected using antibodies against alpha actinin (ACTN), proliferating cell nuclear antigen (PCNA), p53, p21, cyclin B1, and cyclin D1 (Santa Cruz Biotechnology, USA), YH2A.X (EP854(2)Y, Epitomics, USA), cleaved caspase 3, cleaved poly(ADP-ribose) polymerase (PARP) and LC3B-II (Cell signaling, USA).
Cell cycle regulatory protein p21 is one of p53's targets. […] In this experiment, HeLa cells were treated with the indicated concentrations of DXR or NSC745885 for 12 hours and then assessed by immunoblot (FIG. 6A) and RT-PCR (FIG. 6B).
In FIG. 6C, HeLa cells were treated with the indicated concentrations of NSC745885 for 12 hours; proteasome inhibitor MG132 (1 uM or 10 uM) was added 3 hours before harvesting. Cell protein extracts were tested with anti-p53 and anti-p21 antibodies. The results are representative of two independent experiments.

fibroblast 3T3 = experiment: Cell toxicity in non-cancer cell; format: cell-based
Excerpt: To investigate the cell proliferation inhibition effect of NSC745885 in cancer cells, we compared the cancer cell proliferation inhibition effect of the NSC745885 with well-know bladder anti-cancer agent “Emodin” and clinical cancer chemical therapy agent “Doxorubicin”. The experiment bladder cancer cell lines includes T24 (FIG. 9A, 9D) and MBT2 (FIG. 9 B, 9E). We also confirm the NSC745885 cell toxicity using the non-cancer cell fibroblast 3T3 (FIG. 9C) and normal epithelial cell SV_UC—1 (FIG. 9F).

U1R = experiment: Cell proliferation inhibition in anti-Doxorubicin cell line; format: cell-based
Stem Cell Factor (SCF) = experiment: SCF protein expression in cells; format: cell-based
Protocol: To investigate whether NSC745885 down-regulates SCF in cancer cells, we treated bladder cancer cell (MBT2, T24) and normal epithelial cell (SV_HUC—1) with NSC745885 for 24 hours and then analyzed the SCF protein level.
We investigated NSC745885's effect on SCF expression in different cancer cells, including bladder cancer (MBT2, T24), breast cancer (MCF-7, MDA-MB-453), prostate cancer (PC3, LNCaP), kidney cancer (786-O), and kidney epithelial cell (293T). We treatment these different cancer cells with (+) or without (−) the NSC745885 (5 μM), and then analyzed SCF protein level.

telomerase = experiment: PCR-based telomerase assay, TRAP (telomeric repeat amplification protocol); format: biochemical
Excerpt: Binding of low-molecular weight ligands to quadruplexes was first studied with the classic DNA intercalator ethidium and the telomere sequence T4G4 from Oxytricha. It is apparent that G-quadruplexes, with their unique structural, electrostatic and hydrogen bonding features, are the more likely targets for drug action rather than typical duplex or triplex DNA. […] To evaluate the effects of these derivatives on telomerase inhibition, we used PCR-based telomerase assay and TRAP (telomeric repeat amplification protocol) assay at a compound concentration of 100 μM.

SAS cells = experiment: SAS tumor xenograft in mouse; format: in vivo; details: 2 mg/kg/day, 10 days
Protocol: Furthermore, we tested the effects of NSC745885 on tumor size in mouse. This experiment had two animal groups: one is administered after tumor xenograft transplantation with PBS (Control, FIG. 13, Panel A) and the other with NSC745885 (2 mg/kg/day, FIG. 13, Panel B). The mice were euthanized after 10 days and the tumor tissues were immediately isolated. […] (FIG. 13, Panel C).

OVCAR-3 = experiment: NCI 60-cell panel dose-response; details: Homo sapiens, OVCAR-3, read-out: LC50

O=C1c2ccccc2C(=O)c2c1ccc1nsnc21 [NSC745885, anthra[2,1-c][1,2,5]thiadiazole-6,11-dione]
GI50 (HL-60(TB)): 0.16 µM
TGI (HL-60(TB)): 0.40 µM
GI50 (A549/ATCC): 14.7 µM
GI50 (HCC-2998): 16.4 µM
cells arrested in sub-G1 (HeLa cells [1]): 47-58%
senescence rate (SA-β-galactosidase staining) (HeLa cells [2]): 25%
p53 and p21 protein levels (p53 and p21): decreased p21 as well as p53 in a concentration-dependent manner
cell toxicity in normal cell (fibroblast 3T3): no cell toxicity
cell proliferation inhibition (U1R): distinct the cell proliferation inhibiting ability
SCF protein level (Stem Cell Factor (SCF); 5 μM, MBT2, T24, MCF-7, MDA-MB-453, PC3, LNCaP, 786-O, 293T): significantly decreased
SCF protein expression (Stem Cell Factor (SCF); MBT2, T24 and SV_HUC—1 cells, 24 hours, increasing concentrations): suppressed
telomerase activity (TRAP lane pattern) (telomerase; 100 μM, H1299 cell extract): little different from positive control
telomerase inhibitory activity level (telomerase; H1299 cells, TRAP): activity at the micromolar level
body weight (SAS cells): not significantly decreased
tumor size (SAS cells; versus PBS control): reduced
CC50 (OVCAR-3): 11.1 µM

Reference: US8772321B2, “Heteroannelated anthraquinone derivatives for inhibiting cancers” (National Defense Medical Center, priority 2008, dated 2014)
